Results on 1 molecule are retold here after patent US20250212681A1, “Light-Emitting Device” (Semiconductor Energy Laboratory Co., Ltd., priority 2023, published 2025).

This data set is described as follows: Solubility test of PrdP2Phen by LC-MS analysis. The data set is classed as physicochemical. The note with it: 1 mg in 1 mL of water, ultrasonic waves 5 minutes, filtrate analysed by LC-MS; one atmosphere, room temperature. The procedure:
Next, a solubility test of PrdP2Phen was performed. Note that the solubility test was conducted at a pressure of one atmosphere at room temperature (RT).
In the LC-MS analysis, liquid chromatography (LC) separation was carried out with ACQUITY UPLC (manufactured by Waters Corporation), and MS analysis (mass spectrometry) was carried out with Xevo G2 Tof MS (manufactured by Waters Corporation). Acquity UPLC BEH C8 (2.1×100 mm, 1.7 μm) was used as a column for the LC separation. Acetonitrile was used for Mobile Phase A and a 0.1% aqueous solution of formic acid was used for Mobile Phase B. The injection amount of the sample was 5.0 μL. Note that in the analysis, the wavelength of a photodiode array detector was set to 263 nm±1 nm.
In a 5-mL sample bottle, 1 mg of PrdP2Phen was put and 1 mL of water was added thereto. This mixture was irradiated with ultrasonic waves for 5 minutes. This mixture was filtered through a membrane filter to remove the solid, and the resulting filtrate was diluted by five times with acetonitrile. The obtained solution was subjected to LC-MS analysis.

As for `c1cc(-c2ccc(N3CCCC3)cc2)c2ccc3c(-c4ccc(N5CCCC5)cc4)ccnc3c2n1` [PrdP2Phen, 4,7-bis[4-(1-pyrrolidinyl)phenyl]-1,10-phenanthroline], the solubility in water result is reported as “extremely low solubility in water”.
